Assay results published in patent US5712417A, “Inhibitors of retroviral proteases” (Abbott Laboratories, priority 1989, dated 1998).
pIC50: −log10 of the molar value. Counter-ions that a name gives are not always drawn. Like-named read-outs stand apart in the source and are kept apart here.

Biological target: T1, HIV protease (Human immunodeficiency virus type 1 group M subtype B, UniProt P04585)
T1 construct: HIV protease consists of 99 amino acids and is evidently split off by itself from the pol polyprotein
Test: Inhibition of HIV protease (cleavage of H-Ser-Phe-Asn-Phe-Opr-Gln-Ile-OH, HPLC)
Assay type: biochemical
Source text: The compounds of the formula (I) according to the invention have enzyme-inhibiting properties. In particular, they inhibit the action of retroviral aspartyl proteases, such as that of HIV protease. Their enzyme-inhibitory action, which is in the milli- to subnanomolar range, can be determined as follows.
The heptapeptide: H-Ser-Phe-Asn-Phe-Pro-Gln-Ile-OH (P. L. Darke et al., Biophys. Res. Commun. 156 (1988) 297-303), inter alia, has hitherto been used as the substrate of HIV protease. HIV protease cleaves the substrate here between the second Phe and Pro.
General instructions for testing inhibitors of HIV proteases: a) Preparation of the substrate solution:
2 mg of H-Ser-Phe-Asn-Phe-Opr-Gln-Ile-OH (H-Opr-OH=5-oxaproline) are dissolved in 1 ml of MGTE15 buffer (use of ultrasound if necessary) and the solution is then filtered over a sterile filter (0.45 μm). […]
b) Preparation of the inhibitor solution:
2.5 times the desired molarity of the inhibitor per ml of solution are weighed out and dissolved in DMSO (10% of the final volume). The solution is diluted to the final volume with MGTE15 buffer and filtered over a sterile filter (0.45 μm). […]
c) Preparation of the protease solution:
5 μl of the HIV protease solution are diluted with MGTE25 buffer as required.
10 μl portions of the substrate solution are pipetted into test-tubes (16×100) with a screw cap. For the blank experiment, 10 μl of MGTE15 buffer containing 10% of DMSO are pipetted into a test-tube. 10 μl portions of the inhibitor solutions are added to the other test-tubes. The mixtures are incubated at 37° C. for 5-10 minutes and 5 μl of the protease solution are then added to each sample, After reaction at 35° C. for 2 hours, 10 or 20 μl (depending on the sensitivity of the HPLC apparatus) of each sample are then pipetted off, introduced into microvials and diluted with 120 μl of the HPLC mobile phase. […]
e) Conditions for the HPLC analysis:
20% (weight/weight) of aceto-
Column: Merck ®LICHROSORB RP18 (5 μm) 250×4
Column temperature: 42° C.
Detector parameters: 215 nm, 0.08 AUF, 18.2° C.
Analysis time: 11 minutes
Retention time of the substrate: 8.1 minutes
Retention time of the N-terminal tetrapeptide: 3.9 minutes
20 mM morpholinoethanesulfonic acid (MES)
15% (weight/volume) of glycerol
0.1% (volume/volume) of Triton ×100
1 mM phenylmethylsulfonyl fluoride (PMSF)
25% (weight/volume) of glycerol, additionally 1 mM dithiothreitol (DTT) The MES, EDTA, NaCl, DTT and PMSF are weighed into a conical flask and dissolved in a little water and the pH is brought to 6. The corresponding amount of glycerol is weighed into a measuring flask and ®Triton ×100 is pipetted in. The aqueous solution is transferred to the measuring flask and made up to the mark with water.
A 0.1M solution is prepared from orthophosphoric acid (FLUKA extra pure analytical grade). This solution is brought to exactly pH 2.5 with triethylamine (FLUKA extra pure analytical grade). The weight of the solution is determined and the corresponding amount of acetonitrile (fume cupboard) is weighed in. The mixture is mixed thoroughly and degassed with helium 5.0 for about 5 minutes.
Under the conditions chosen here, heptapeptides are separated from the N-terminal tetrapeptide formed during enzymatic cleavage. The percentage content of the tetrapeptide peak in respect of the sum of tetrapeptide+heptapeptide corresponds to the cleaving rate. The following IC50 values indicate the inhibitor concentration at which the cleavage rate is halved.

[1] = inhibitor concentration at which the cleavage rate is halved, pH 6, 2 hours, read-out: IC50

Compound | pIC50 [1] | also measured
CC(C)[C@H](NC[C@@H](N)Cc1ccccc1)C(=O)N[C@@H](Cc1ccccc1)[C@H](O)[C@@H](O)[C@H](Cc1ccccc1)NC(=O)[C@@H](NC[C@@H](N)Cc1ccccc1)C(C)C [Example 28, N,N'-bis-(2S-<2S-Amino-3-phenylpropyl>-amino-3-methyl-butanoyl)-2S,5S-diamino-1,6-diphenylhexane-3S,4S-diol tetrahydrochloride] | 5.52 | 
CC(C)[C@H](NC(=O)[C@@H](N)Cc1ccccc1)C(=O)N[C@H](Cc1ccccc1)[C@@H](O)[C@H](O)[C@@H](Cc1ccccc1)NC(=O)[C@@H](NC(=O)[C@@H](N)Cc1ccccc1)C(C)C [Example 30, N,N'-bis-(L-Phenylalanyl-L-valyl)-2R,5R-diamino-1,6-diphenylhexane-3R,4R-diol dihydrochloride] | 7.52 | 
CC(C)[C@H](NC(=O)[C@H](Cc1ccccc1)NC(=O)OC(C)(C)C)C(=O)N[C@H](Cc1ccccc1)[C@@H](O)[C@H](O)[C@@H](Cc1ccccc1)NC(=O)[C@@H](NC(=O)[C@H](Cc1ccccc1)NC(=O)OC(C)(C)C)C(C)C [Example 33, N,N'-bis-(tert.-Butoxycarbonyl-L-phenylalanyl-L-valyl)-2R,5R-diamino-1,6-diphenylhexane-3R,4R-diol] | 4.70 | 
CC(C)[C@H](NC(=O)[C@@H](N)Cc1cccc2ccccc12)C(=O)N[C@@H](Cc1ccccc1)[C@@H](O)[C@H](O)[C@H](Cc1ccccc1)NC(=O)[C@@H](NC(=O)[C@@H](N)Cc1cccc2ccccc12)C(C)C [Example 39, N,N'-bis-(L-(1-Naphthyl)-alanyl-L-valyl)-2S,5S-diamino-1,6-diphenylhexane-3R,4R-diol dihydrochloride] | 8.89 | 
CC(C)[C@H](NC(=O)[C@H](Cc1cccc2ccccc12)NC(=O)OC(C)(C)C)C(=O)N[C@@H](Cc1ccccc1)[C@@H](O)[C@H](O)[C@H](Cc1ccccc1)NC(=O)[C@@H](NC(=O)[C@H](Cc1cccc2ccccc12)NC(=O)OC(C)(C)C)C(C)C [Example 40, N,N'-bis-(tert.-Butoxycarbonyl-L-(1-naphthyl)-alanyl-L-valyl)-2S,5S-diamino-1,6-diphenylhexane-3R,4R-diol] | 7.89 | 
CC(C)[C@H](NC(=O)[C@@H](N)Cc1ccccc1)C(=O)N[C@@H](CC1CCCCC1)[C@H](O)[C@@H](O)[C@H](CC1CCCCC1)NC(=O)[C@@H](NC(=O)[C@@H](N)Cc1ccccc1)C(C)C [Example 43, N,N'-bis-[L-Phenylalanyl-L-valyl]-2S,5S-diamino-1,6-dicyclohexylhexane-3S,4S-diol dihydrochloride] | 9.00 | 
CC(C)[C@H](NC(=O)[C@H](Cc1ccccc1)NC(=O)OC(C)(C)C)C(=O)N[C@@H](CC1CCCCC1)[C@H](O)[C@@H](O)[C@H](CC1CCCCC1)NC(=O)[C@@H](NC(=O)[C@H](Cc1ccccc1)NC(=O)OC(C)(C)C)C(C)C [Example 45, N,N'-bis-(tert.-Butoxycarbonyl-L-phenylalanyl-L-valyl)-2S,5S-diamino-1,6-dicyclohexylhexane-3S,4S-diol] | 5.82 | 
CC(C)(C)OC(=O)N[C@@H](CC1CCCCC1)[C@H](O)[C@H](O)[C@H](CC1CCCCC1)NC(=O)OC(C)(C)C [Example 48, N,N'-bis-(tert.-Butoxycarbonyl)-2S, 5S-diamino-1,6-dicyclohexylhexane-3R, 4S-diol] | 4.10 | 
CC(C)[C@H](NC(=O)[C@H](Cc1ccccc1)NC(=O)[C@H]1CC[C@@H](N)CC1)C(=O)N[C@@H](Cc1ccccc1)[C@H](O)[C@@H](O)[C@H](Cc1ccccc1)NC(=O)[C@@H](NC(=O)[C@H](Cc1ccccc1)NC(=O)[C@H]1CC[C@@H](N)CC1)C(C)C [Example 49, N,N'-bis-(4Z-Aminocyclohexanecarbonyl-L-phenylalanyl-L-valyl)-2S, 5S-diamino-1,6-diphenyl-3S, 5S-diol dihydrochloride] |  | pIC50 (pH 6, read-out: IC50): 8.92
CC(C)[C@H](NC(=O)[C@H](Cc1ccccc1)NC(=O)[C@H]1CC[C@@H](NC(=O)OC(C)(C)C)CC1)C(=O)N[C@@H](Cc1ccccc1)[C@H](O)[C@@H](O)[C@H](Cc1ccccc1)NC(=O)[C@@H](NC(=O)[C@H](Cc1ccccc1)NC(=O)[C@H]1CC[C@@H](NC(=O)OC(C)(C)C)CC1)C(C)C [Example 50, N,N'-bis-(4Z -N-tert.-Butoxycarbonylamino)-cyclohexanecarbonyl-L-phenylalanyl-L-valyl)-2S, 5S-diamino-1,6-diphenyl-4S, 5S-diol dihydrochloride] |  | pIC50 (inhibitor concentration at which the cleavage rate is halved, pH 6, 2 hours): 7.35
CC(C)[C@H](NC(=O)[C@H](Cc1cccc2ccccc12)CS(=O)(=O)C(C)(C)C)C(=O)N[C@@H](Cc1ccccc1)[C@H](O)[C@@H](O)[C@H](Cc1ccccc1)NC(=O)[C@@H](NC(=O)[C@H](Cc1cccc2ccccc12)CS(=O)(=O)C(C)(C)C)C(C)C [Example 51, N,N'-bis-<(2S-(1,1-Dimethylethylsulfonylmethyl)-3-(1-naphthyl)-propionyl)-L-valyl>-2S,5S-diamino-1,6-diphenyl-hexane-3S,4S-diol] | 9.10 | 
CC(C)[C@H](NC(=O)[C@@H](Cc1cccs1)CS(=O)(=O)C(C)(C)C)C(=O)N[C@@H](Cc1ccccc1)[C@@H](O)[C@H](O)[C@H](Cc1ccccc1)NC(=O)[C@@H](NC(=O)[C@@H](Cc1cccs1)CS(=O)(=O)C(C)(C)C)C(C)C [Example 54, N,N,-bis-<(2R-(1,1-Dimethylethylsulfonylmethyl)-3-(2-thienyl)-propionyl)-L-valyl>-2S,5S-diamino-1,6-diphenyl-hexane-3R,4R-diol] | 6.59 | 
CC(C)C[C@H](NC(=O)[C@@H](NC(=O)[C@@H](N)Cc1ccccc1)C(C)C)C(O)C(O)[C@H](CC(C)C)NC(=O)[C@@H](NC(=O)[C@@H](N)Cc1ccccc1)C(C)C (stereo partly drawn) [Example 55, N,N'-bis-(L-Phenylalanyl-L-valyl)-4S,7S-diamino-2,9-dimethyldecane-5,6-dioldihydrochloride] | 8.89 | 
CC(C)[C@H](NC(=O)Cc1ccccn1)C(=O)N[C@@H](Cc1ccccc1)[C@@H](O)[C@H](O)[C@H](Cc1ccccc1)NC(=O)[C@@H](NC(=O)Cc1ccccn1)C(C)C [Example 58, N,N'-bis-<(2-Pyridyl)-acetyl-L-valyl>-2S,5S-diamino-1,6-diphenylhexane-3R,4R-diol] | 7.31 | 
CC(C)[C@H](NC(=O)CSc1ccncc1)C(=O)N[C@@H](Cc1ccccc1)[C@@H](O)[C@H](O)[C@H](Cc1ccccc1)NC(=O)[C@@H](NC(=O)CSc1ccncc1)C(C)C [Example 59, N,N'-bis-<(4-Pyridylthio)-acetyl-L-valyl>-2S,5S-diamino-1,6-diphenylhexane-3R,4R-diol] | 7.33 | 
CC(C)[C@H](NC(=O)[C@H](N)Cc1ccccc1)C(=O)N[C@@H](Cc1ccccc1)[C@H](O)[C@@H](O)[C@H](Cc1ccccc1)NC(=O)[C@@H](NC(=O)[C@H](N)Cc1ccccc1)C(C)C [Example 61, N,N'-bis-<D-Phenylalanyl-L-valyl>-2S,5S-diamino-1,6-diphenylhexane-3S,4S-diol dihydrochloride] | 6.40 | 
CC(C)[C@H](NC(=O)[C@@H](Cc1ccccc1)NC(=O)OC(C)(C)C)C(=O)N[C@@H](Cc1ccccc1)[C@H](O)[C@@H](O)[C@H](Cc1ccccc1)NC(=O)[C@@H](NC(=O)[C@@H](Cc1ccccc1)NC(=O)OC(C)(C)C)C(C)C [Example 63, N,N'-bis-<tert.-Butoxycarbonyl-D-phenylalanyl-L-valyl>-2S,5S-diamino-1,6-diphenylhexane-3S,4S-diol] | 8.19 | 
CC[C@H](C)[C@H](NC(=O)[C@@H](N)Cc1ccccc1)C(=O)N[C@@H](Cc1ccccc1)[C@H](O)[C@@H](O)[C@H](Cc1ccccc1)NC(=O)[C@@H](NC(=O)[C@@H](N)Cc1ccccc1)[C@@H](C)CC [Example 65, N,N'-bis-<L-Phenylalanyl-L-isoleucyl>-2S,5S-diamino-1,6-diphenylhexane-3S,4S-diol dihydrochloride] | 8.74 | 
